Test: Fatty acid composition of pig tissues (ham, loin, belly, skin) after feeding SDA ethyl ester diets, 35 day study
Type: in vivo, pigs
Experimental: A 35 day study was conducted to determine whether pigs fed a diet containing SDA could enhance tissues with improved fatty acid profiles including increased levels of SDA, EPA, and DHA.
Four test diets (Treatment 2, 3, 4, and 5) with SDA ethyl ester substituted for corn oil to provide 0.2, 0.4, 0.6 and 0.8% (w/w SDA active ingredient, as-is basis) were fed ad libitum to one pen of four pigs throughout the 35-day test period Table 4). All diets were fed in meal form. Treatment 6 was fed the same diet as Treatment 5, but for a duration of only 21 days.
All pigs were individually weighed at initiation of the acclimation and test period, and immediately prior to slaughter. Feed consumption per pen was recorded. Upon completion of the feeding period, pigs were slaughtered for tissue collection and carcass evaluation. Pigs were slaughtered using standard industry practices (electrical stunning, exsanguinations, scalding, dehairing and evisceration). Live weights prior to slaughter and hot carcass weights were recorded. The left side of each carcass was fabricated and samples were obtained from the loin (longissimus muscle), ham (semimembranosus muscle) and belly (a section from the center of the belly) for sensory evaluation, fatty acid, and proximate analysis. Prior to removing the sample for sensory and fatty and proximate analysis from the belly the firmness of the belly was evaluated using a flop test. At 24 hr postmortem fat thickness (10th rib), loin eye area (10th rib), visual color, firmness and marbling, Minolta color (L*a*b*), pH, and drip loss were measured.
In order to evaluate the fatty acid composition of pig tissues (loin, ham, skin, and belly), samples were stored at −80° C. until evaluation. After thawing, ˜22 g of fresh pig tissue was chopped into small pieces and thoroughly mixed before 10 g was sub sampled and lyophilized. Lyophilized samples were ground in 30 ml Sarstedt tubes with two ball bearings using a Mega Grinder. Ground samples (loin and ham: 50 mg; skin: 100 mg; belly: 150 mg; diet: 500 mg) were directly methylated with sulfuric acid in methanol (loin and ham: 1 mL; skin: 3 mL; belly: 10 mL; diet: 1.5 mL) sealed in the presence of butylated hydroxytoluene (50 mg BHT in 100 ml reagent) in reflux conditions of 90° C. Resultant fatty acid methyl esters (FAME's) were separated by capillary gas chromatography (GC) and detected by flame ionization detector (FID). The column used was a Supelco Omegawax 250 capillary column with dimensions of 30 m×0.25 mm×0.25 μm film thickness. The run time was 32 minutes. Peaks were identified based on their relative retention time compared to a FAME reference mixture. Quantification was achieved by using an internal standard (c15:0 triacylglyceride (TAG) for pig tissue samples and c17:0 TAG for diet samples). Results are reported as FA g/100 g fat with theoretical response correction.
For Table 6 below, each value represents g/100 g total fatty acids a mean of 4 samples (1 sample from each of 4 pigs) per treatment.

SMILES: CC/C=C\C/C=C\C/C=C\C/C=C\CCCCC(=O)O [SDA, stearidonic acid]
- 22:3 n-6, ham (0.8% SDA feed, 35 days): 0.24 g FA per 100 g fat
- 22:5 n-3 (DPA), ham (0.8% SDA feed, 35 days): 0.83 g FA per 100 g fat
- 22:6 n-3 (DHA), ham (0.8% SDA feed, 35 days): 0.13 g FA per 100 g fat
- 24:1 n-9, ham (0.8% SDA feed, 35 days): 0.07 g FA per 100 g fat
- Total PUFA, ham (0.8% SDA feed, 35 days): 18.89 g FA per 100 g fat
- Total monoenes, ham (0.8% SDA feed, 35 days): 43.54 g FA per 100 g fat
- Total n-3, ham (0.8% SDA feed, 35 days): 2.64 g FA per 100 g fat
- Total n-6, ham (0.8% SDA feed, 35 days): 16.25 g FA per 100 g fat
- Total saturates, ham (0.8% SDA feed, 35 days): 33.18 g FA per 100 g fat
- n-6/n-3, ham (0.8% SDA feed, 35 days): 6.16
- 12:0, ham (SDA 0.2%, 35 Day): 2.04 mg FA/100 g of fresh tissue
- 14:0, ham (SDA 0.2%, 35 Day): 34.0 mg FA/100 g of fresh tissue
- 16:0, ham (SDA 0.2%, 35 Day): 673.5 mg FA/100 g of fresh tissue
- 16:1 n-7, ham (SDA 0.2%, 35 Day): 116.6 mg FA/100 g of fresh tissue
- 18:0, ham (SDA 0.2%, 35 Day): 313.7 mg FA/100 g of fresh tissue
- 18:1 n-7, ham (SDA 0.2%, 35 Day): 146.2 mg FA/100 g of fresh tissue
- 18:1 n-9, ham (SDA 0.2%, 35 Day): 1303.4 mg FA/100 g of fresh tissue
- 18:2 n-6, ham (SDA 0.2%, 35 Day): 264.7 mg FA/100 g of fresh tissue
- 18:3 n-3, ham (SDA 0.2%, 35 Day): 5.60 mg FA/100 g of fresh tissue
- 18:4 n-3, ham (SDA 0.2%, 35 Day): 0.76ab mg FA/100 g of fresh tissue
- 20:1 n-9, ham (SDA 0.2%, 35 Day): 22.0 mg FA/100 g of fresh tissue
- 20:2 n-6, ham (SDA 0.2%, 35 Day): 11.4a mg FA/100 g of fresh tissue
- 20:3 n-3, ham (SDA 0.2%, 35 Day): 0.91 mg FA/100 g of fresh tissue
- 20:4 n-3, ham (SDA 0.2%, 35 Day): 2.23ab mg FA/100 g of fresh tissue
- 20:4 n-6, ham (SDA 0.2%, 35 Day): 57.4 mg FA/100 g of fresh tissue
- 20:5 n-3, ham (SDA 0.2%, 35 Day): 3.98a mg FA/100 g of fresh tissue
- 22:1 n-11, ham (SDA 0.2%, 35 Day): 1.06ab mg FA/100 g of fresh tissue
- 22:5 n-3, ham (SDA 0.2%, 35 Day): 11.1b mg FA/100 g of fresh tissue
- 22:6 n-3, ham (SDA 0.2%, 35 Day): 2.21 mg FA/100 g of fresh tissue
- Lipid content, ham (SDA 0.2%, 35 Day): 3.15%
- Total PUFA, ham (SDA 0.2%, 35 Day): 377.9 mg FA/100 g of fresh tissue
- Total monoenes, ham (SDA 0.2%, 35 Day): 1600 mg FA/100 g of fresh tissue
- Total n-3, ham (SDA 0.2%, 35 Day): 26.8a mg FA/100 g of fresh tissue
- Total n-6, ham (SDA 0.2%, 35 Day): 351.2 mg FA/100 g of fresh tissue
- Total saturates, ham (SDA 0.2%, 35 Day): 1029.0 mg FA/100 g of fresh tissue
- n-3/n-6, ham (SDA 0.2%, 35 Day): 0.080b
- 12:0, ham (SDA 0.4%, 35 Day): 2.22 mg FA/100 g of fresh tissue
- 14:0, ham (SDA 0.4%, 35 Day): 38.2 mg FA/100 g of fresh tissue
- 16:0, ham (SDA 0.4%, 35 Day): 748.4 mg FA/100 g of fresh tissue
- 16:1 n-7, ham (SDA 0.4%, 35 Day): 121.6 mg FA/100 g of fresh tissue
- 18:0, ham (SDA 0.4%, 35 Day): 370.6 mg FA/100 g of fresh tissue
- 18:1 n-7, ham (SDA 0.4%, 35 Day): 151.0 mg FA/100 g of fresh tissue
- 18:1 n-9, ham (SDA 0.4%, 35 Day): 1404.9 mg FA/100 g of fresh tissue
- 18:2 n-6, ham (SDA 0.4%, 35 Day): 316.6 mg FA/100 g of fresh tissue
- 18:3 n-3, ham (SDA 0.4%, 35 Day): 9.17 mg FA/100 g of fresh tissue
- 18:4 n-3, ham (SDA 0.4%, 35 Day): 1.45b mg FA/100 g of fresh tissue
- 20:1 n-9, ham (SDA 0.4%, 35 Day): 23.6 mg FA/100 g of fresh tissue
- 20:2 n-6, ham (SDA 0.4%, 35 Day): 12.7a mg FA/100 g of fresh tissue
- 20:3 n-3, ham (SDA 0.4%, 35 Day): 1.49 mg FA/100 g of fresh tissue
- 20:4 n-3, ham (SDA 0.4%, 35 Day): 5.04bc mg FA/100 g of fresh tissue
- 20:4 n-6, ham (SDA 0.4%, 35 Day): 64.3 mg FA/100 g of fresh tissue
- 20:5 n-3, ham (SDA 0.4%, 35 Day): 7.91b mg FA/100 g of fresh tissue
- 22:1 n-11, ham (SDA 0.4%, 35 Day): 1.25b mg FA/100 g of fresh tissue
- 22:5 n-3, ham (SDA 0.4%, 35 Day): 15.2c mg FA/100 g of fresh tissue
- 22:6 n-3, ham (SDA 0.4%, 35 Day): 2.59 mg FA/100 g of fresh tissue
- Lipid content, ham (SDA 0.4%, 35 Day): 3.5%
- Total PUFA, ham (SDA 0.4%, 35 Day): 459.2 mg FA/100 g of fresh tissue
- Total monoenes, ham (SDA 0.4%, 35 Day): 1715 mg FA/100 g of fresh tissue
- Total n-3, ham (SDA 0.4%, 35 Day): 42.9b mg FA/100 g of fresh tissue
- Total n-6, ham (SDA 0.4%, 35 Day): 416.4 mg FA/100 g of fresh tissue
- Total saturates, ham (SDA 0.4%, 35 Day): 1166.5 mg FA/100 g of fresh tissue
- n-3/n-6, ham (SDA 0.4%, 35 Day): 0.101bc
- 12:0, ham (SDA 0.6%, 35 Day): 1.37 mg FA/100 g of fresh tissue
- 14:0, ham (SDA 0.6%, 35 Day): 23.9 mg FA/100 g of fresh tissue
- 16:0, ham (SDA 0.6%, 35 Day): 482.6 mg FA/100 g of fresh tissue
- 16:1 n-7, ham (SDA 0.6%, 35 Day): 69.5 mg FA/100 g of fresh tissue
- 18:0, ham (SDA 0.6%, 35 Day): 252.5 mg FA/100 g of fresh tissue
- 18:1 n-7, ham (SDA 0.6%, 35 Day): 92.6 mg FA/100 g of fresh tissue
- 18:1 n-9, ham (SDA 0.6%, 35 Day): 854.9 mg FA/100 g of fresh tissue
- 18:2 n-6, ham (SDA 0.6%, 35 Day): 215.7 mg FA/100 g of fresh tissue
- 18:3 n-3, ham (SDA 0.6%, 35 Day): 5.03 mg FA/100 g of fresh tissue

From patent US20090197955A1, “METHODS OF IMPROVING DHA DEPOSITION AND RELATED FUNCTION AND/OR DEVELOPMENT” (Monsanto Company, priority 2008, published 2009)
